Reference: US20210290604A1, “COMPOUNDS FOR TREATMENT OF INFLAMMATORY BOWEL DISEASE AND METHODS THEREOF” (priority 2018, published 2021)

System: TNBS-induced colitis
Assay: TNBS-induced colitis in mice, oral dosing once a day Days 1-7
Assay type: in vivo, female SJL mice
Design: Disease Activity Index, Mean / Fecal Consistency, Mean: scale not given here
Details: for Colon Length, Mean / Colon Weight, Mean / Colon Weight/Length ratio, Mean: at euthanasia; for Histopathological severity score, Mean: colon H&E, score 0-4; for overall conclusion as compared to TNBS-vehicle (in words): oral
Procedure: Healthy young female SJL mice were used for the study. At the commencement of the study, the mice were between 8-9 weeks of age, weighing 20-22 g. All the mice were obtained from The Jackson Laboratory, Bar Harbor, Me. 04609 USA.
After seven days of acclimatization, mice were grouped according to their body weight. There was one group of ten mice and five groups of fifteen mice each. Five groups of fifteen mice each were challenged intra-rectally with 100 μl of 2.0% TNBS in 50% EtOH and other group of ten mice were challenged intra-rectally with 100 μl of 50% EtOH and serve as No-TNBS control. The experimental groups were as follows:
The mice were challenged intra-rectally with 100 μl of 2% TNBS in 50% ethanol under light anesthesia with ketamine/xylazine. The test compounds were administrated an hour prior to intra-rectal administration of TNBS as per scheduled daily dosing.
Vehicle and no-TNBS control groups received 0.5% CMC orally from Day 1 to Day 7.
Body Weight: The body weights were measured daily for 1-7 days using a laboratory balance.
Disease Activity Index: The clinical assessment of the mice was performed beginning Day 2 (a day after the intra-rectal administration of TNBS). The clinical assessment includes body weight, stool consistency and the presence of blood in the stools and scored according to Table 2.
Colon Length and Weight: the mice were euthanized using CO2 asphyxiation and colon from the colocecal junction to the anus was removed, washed and cleaned of all fecal matter using PBS. The colon length and weight were measured and then preserved in 10% NBF for histopathology.
Histopathology: Formalin fixed colon samples were submitted to affiliated histopathology laboratory for histopathological analysis subjected to hematoxylin and eosin (H & E) staining using standard techniques. Each colon was trimmed from both ends and mid. All three sections were stained and evaluated.
A board certified veterinarian pathologist assessed the presence of colitis and severity score according to the following criteria: • 0=no sign of inflammation • 1=very low level of inflammation • 2=low level of leukocytic infiltration, low level of inflammation • 3=high level of leukocytic infiltration, high vascular density, inflammation and thickening of colon wall • 4=transmural infiltration, loss of goblet cells, high vascular density, crypt abscesses, thickening of colon wall and ulceration.
The data is presented as the mean±standard error (SEM) obtained from Microsoft Excel or GraphPad Prism version 5.00 for Windows (GraphPad Software, San Diego Calif. USA). The data was analyzed using two-way ANOVA using Bonferroni post-test. Differences between groups were considered significant at p<0.05.

C[C@@H]([C@H](O)c1ccc(O)cc1)N1CCC(Cc2ccccc2)CC1 (racemic) [Ifenprodil, 4-[2-(4-benzylpiperidin-1-ium-1-yl)-1-hydroxypropyl] phenol; 2,3,4-trihydroxy-4-oxobutanoate]
Disease Activity Index vs TNBS-vehicle group (in words) (30 mg/kg): No significant differences
histopathology, cell morphological changes / severity (in words) (30 mg/kg PO QD (Table 1)): statistically significantly reducing cell morphological changes associated with disease
body weight change as compared to the TNBS-vehicle group (in words) (30 mg/kg po): significant improvement beginning on Day 4
Percent Change in Body Weight, Mean (Day 1, 30 mg/kg PO QD): 0.00%
Percent Survivability (Day 1, 30 mg/kg PO QD): 100.000%
Disease Activity Index, Mean (Day 2, 30 mg/kg PO QD): 1.62
Fecal Consistency, Mean (Day 2, 30 mg/kg PO QD): 1.00
Occult Positivity, Mean (Day 2, 30 mg/kg PO QD): 1.86
Percent Change in Body Weight, Mean (Day 2, 30 mg/kg PO QD): −9.38%
Percent Survivability (Day 2, 30 mg/kg PO QD): 93.000%
Disease Activity Index, Mean (Day 3, 30 mg/kg PO QD): 2.04
Fecal Consistency, Mean (Day 3, 30 mg/kg PO QD): 1.71
Occult Positivity, Mean (Day 3, 30 mg/kg PO QD): 2.14
Percent Change in Body Weight, Mean (Day 3, 30 mg/kg PO QD): −11.31%
Percent Survivability (Day 3, 30 mg/kg PO QD): 93.000%
Disease Activity Index, Mean (Day 4, 30 mg/kg PO QD): 2.14
Fecal Consistency, Mean (Day 4, 30 mg/kg PO QD): 2.00
Occult Positivity, Mean (Day 4, 30 mg/kg PO QD): 2.62
Percent Change in Body Weight, Mean (Day 4, 30 mg/kg PO QD): −9.44%
Percent Survivability (Day 4, 30 mg/kg PO QD): 86.600%
Disease Activity Index, Mean (Day 5, 30 mg/kg PO QD): 1.82
Fecal Consistency, Mean (Day 5, 30 mg/kg PO QD): 1.67
Occult Positivity, Mean (Day 5, 30 mg/kg PO QD): 2.33
Percent Change in Body Weight, Mean (Day 5, 30 mg/kg PO QD): −7.64%
Percent Survivability (Day 5, 30 mg/kg PO QD): 80.000%
Disease Activity Index, Mean (Day 6, 30 mg/kg PO QD): 1.56
Fecal Consistency, Mean (Day 6, 30 mg/kg PO QD): 1.33
Occult Positivity, Mean (Day 6, 30 mg/kg PO QD): 2.00
Percent Change in Body Weight, Mean (Day 6, 30 mg/kg PO QD): −6.68%
Percent Survivability (Day 6, 30 mg/kg PO QD): 80.000%
Disease Activity Index, Mean (Day 7, 30 mg/kg PO QD): 1.41
Fecal Consistency, Mean (Day 7, 30 mg/kg PO QD): 1.17
Occult Positivity, Mean (Day 7, 30 mg/kg PO QD): 1.83
Percent Change in Body Weight, Mean (Day 7, 30 mg/kg PO QD): −6.23%
Percent Survivability (Day 7, 30 mg/kg PO QD): 80.000%
Colon Length, Mean (30 mg/kg PO QD Days 1-7): 8.93 cm
Colon Weight, Mean (30 mg/kg PO QD Days 1-7): 0.2145 g
Colon Weight/Length ratio, Mean (30 mg/kg PO QD Days 1-7): 24.5065 mg/cm
Histopathological severity score, Mean (30 mg/kg PO QD Days 1-7): 1.06
overall conclusion as compared to TNBS-vehicle (in words) (30 mg/kg): showed improvement in colitis as well as in the loss of body weight, DAI, colon length, weight and weight/length ratio

O=C(Nc1ccc2[nH]c(=O)oc2c1)C(=O)N1CCC(Cc2ccc(F)cc2)CC1 [Radiprodil, 2-[4-[(4-fluorophenyl)methyl]piperidin-1-yl]-2-oxo-N-(2-oxo-3H-1,3-benzoxazol-6-yl)acetamide]
Disease Activity Index vs TNBS-vehicle group (in words) (30 mg/kg): No significant differences
histopathology, cell morphological changes / severity (in words) (30 mg/kg PO QD (Table 1)): reduced severity
body weight change as compared to the TNBS-vehicle group (in words) (30 mg/kg po): significant improvement beginning Day 4, with the exception of Day 3
Percent Change in Body Weight, Mean (Day 1, 30 mg/kg PO QD): 0.00%
Percent Survivability (Day 1, 30 mg/kg PO QD): 100.000%
Disease Activity Index, Mean (Day 2, 30 mg/kg PO QD): 1.84
Fecal Consistency, Mean (Day 2, 30 mg/kg PO QD): 1.20
Occult Positivity, Mean (Day 2, 30 mg/kg PO QD): 2.00
Percent Change in Body Weight, Mean (Day 2, 30 mg/kg PO QD): −10.51%
Percent Survivability (Day 2, 30 mg/kg PO QD): 100.000%
Disease Activity Index, Mean (Day 3, 30 mg/kg PO QD): 2.24
Fecal Consistency, Mean (Day 3, 30 mg/kg PO QD): 1.33
Occult Positivity, Mean (Day 3, 30 mg/kg PO QD): 2.53
Percent Change in Body Weight, Mean (Day 3, 30 mg/kg PO QD): −13.08%
Percent Survivability (Day 3, 30 mg/kg PO QD): 100.000%
Disease Activity Index, Mean (Day 4, 30 mg/kg PO QD): 2.13
Fecal Consistency, Mean (Day 4, 30 mg/kg PO QD): 1.23
Occult Positivity, Mean (Day 4, 30 mg/kg PO QD): 2.46
Percent Change in Body Weight, Mean (Day 4, 30 mg/kg PO QD): −10.35%
Percent Survivability (Day 4, 30 mg/kg PO QD): 86.670%
Disease Activity Index, Mean (Day 5, 30 mg/kg PO QD): 1.78
Fecal Consistency, Mean (Day 5, 30 mg/kg PO QD): 1.00
Occult Positivity, Mean (Day 5, 30 mg/kg PO QD): 2.33
Percent Change in Body Weight, Mean (Day 5, 30 mg/kg PO QD): −8.29%
Percent Survivability (Day 5, 30 mg/kg PO QD): 80.000%
Disease Activity Index, Mean (Day 6, 30 mg/kg PO QD): 1.67
Fecal Consistency, Mean (Day 6, 30 mg/kg PO QD): 1.00
Occult Positivity, Mean (Day 6, 30 mg/kg PO QD): 2.17
Percent Change in Body Weight, Mean (Day 6, 30 mg/kg PO QD): −7.58%
Percent Survivability (Day 6, 30 mg/kg PO QD): 80.000%
Disease Activity Index, Mean (Day 7, 30 mg/kg PO QD): 1.50
Fecal Consistency, Mean (Day 7, 30 mg/kg PO QD): 1.00
Occult Positivity, Mean (Day 7, 30 mg/kg PO QD): 1.83
Percent Change in Body Weight, Mean (Day 7, 30 mg/kg PO QD): −6.95%
Percent Survivability (Day 7, 30 mg/kg PO QD): 80.000%
Colon Length, Mean (30 mg/kg PO QD Days 1-7): 8.42 cm
Colon Weight, Mean (30 mg/kg PO QD Days 1-7): 0.3095 g
Colon Weight/Length ratio, Mean (30 mg/kg PO QD Days 1-7): 37.7622 mg/cm
Histopathological severity score, Mean (30 mg/kg PO QD Days 1-7): 1.61
overall conclusion as compared to TNBS-vehicle (in words) (30 mg/kg): showed improvement in colitis as well as in the loss of body weight, DAI, colon length, weight and weight/length ratio

Nc1ccc(O)c(C(=O)O)c1 [5-ASA, 5-Amino-2-hydroxybenzoic acid]
histopathology, cell morphological changes / severity (in words) (100 mg/kg PO QD (Table 1)): statistically significantly reducing cell morphological changes associated with disease
body weight change as compared to the TNBS-vehicle group (in words) (100 mg/kg po): significant improvement beginning on Day 4
Percent Change in Body Weight, Mean (Day 1, 100 mg/kg PO QD): 0.00%
Percent Survivability (Day 1, 100 mg/kg PO QD): 100.000%
Fecal Consistency, Mean (Day 2, 100 mg/kg PO QD): 1.47
Occult Positivity, Mean (Day 2, 100 mg/kg PO QD): 1.33
Percent Change in Body Weight, Mean (Day 2, 100 mg/kg PO QD): −10.01%
Percent Survivability (Day 2, 100 mg/kg PO QD): 100.000%
Occult Positivity, Mean (Day 3, 100 mg/kg PO QD): 2.00
Percent Change in Body Weight, Mean (Day 3, 100 mg/kg PO QD): −10.45%
Percent Survivability (Day 3, 100 mg/kg PO QD): 100.000%
Percent Change in Body Weight, Mean (Day 4, 100 mg/kg PO QD): −9.33%
Percent Survivability (Day 4, 100 mg/kg PO QD): 93.000%
Fecal Consistency, Mean (Day 5, 100 mg/kg PO QD): 1.38
Occult Positivity, Mean (Day 5, 100 mg/kg PO QD): 2.15
Percent Change in Body Weight, Mean (Day 5, 100 mg/kg PO QD): −7.81%
Percent Survivability (Day 5, 100 mg/kg PO QD): 86.670%
Fecal Consistency, Mean (Day 6, 100 mg/kg PO QD): 0.83
Occult Positivity, Mean (Day 6, 100 mg/kg PO QD): 1.67
Percent Change in Body Weight, Mean (Day 6, 100 mg/kg PO QD): −5.87%
Percent Survivability (Day 6, 100 mg/kg PO QD): 80.000%
occult positivity as compared to TNBS-vehicle (in words) (Day 7, 100 mg/kg): significant improvements
Fecal Consistency, Mean (Day 7, 100 mg/kg PO QD): 0.83
Occult Positivity, Mean (Day 7, 100 mg/kg PO QD): 1.17
Percent Change in Body Weight, Mean (Day 7, 100 mg/kg PO QD): −6.09%
Percent Survivability (Day 7, 100 mg/kg PO QD): 80.000%
Colon Length, Mean (100 mg/kg PO QD Days 1-7): 9.08 cm
Colon Weight, Mean (100 mg/kg PO QD Days 1-7): 0.2494 g
Histopathological severity score, Mean (100 mg/kg PO QD Days 1-7): 1.08
overall conclusion as compared to TNBS-vehicle (in words) (100 mg/kg): showed improvement in the colitis, loss of body weight and disease activity index
